Results taken from patent US20020103377A1, “Piperidinyloxy and pyrrolidinyloxy oxazolidinone antibacterials” (priority 1999, published 2002).
Converted amounts (≈) assume the structure as drawn.

Key:
[1] = tested on: E. faecium OC3312; assay: MIC by microdilution broth method (NCCLS), E. faecium OC3312; type: cell-based; conditions: Enterococcus faecium, OC3312, microdilution broth, cation adjusted Mueller-Hinton broth, 35° C., 16-20 hours; read-out: MIC (μg/mL) E. faecium OC3312
Method: (§1) Minimal inhibitory concentration (MIC) has been an indicator of in vitro antibacterial activity widely used in the art. The in vitro antimicrobial activity of the compounds was determined by the microdilution broth method following the test method from the National Committee for Laboratory Standards (NCCLS). This method is described in the NCCLS Document M7-A4, Vol. 17, No.2, “Methods for Dilution Antimicrobial Susceptibility Test for Bacteria that Grow Aerobically-Fourth Edition”, which is incorporated herein by reference.
(§2) In this method two-fold serial dilutions of drug in cation adjusted Mueller-Hinton broth are added to wells in microdilution trays. The test organisms are prepared by adjusting the turbidity of actively growing broth cultures so that the final concentration of test organism after it is added to the wells is approximately 5×10^4 CFU/well.
(§3) Following inoculation of the microdilution trays, the trays are incubated at 35° C. for 16-20 hours and then read. […] The amount of growth in the wells containing the test compound is compared with the amount of growth in the growth-control wells (no test compound) used in each tray. As set forth in Table 1, compounds of the present invention were tested against a variety of Gram positive and Gram negative pathogenic bacteria resulting in a range of activities, from 1 to ≧128 μg/mL depending on the organism tested.

[2] = tested on: S. aureus; assay: MIC by microdilution broth method (NCCLS), S. aureus Broth; type: cell-based; conditions: Staphylococcus aureus, cation adjusted Mueller-Hinton broth, 35° C., 16-20 hours, read-out: MIC (μg/mL) S. aureus Broth
Method: as §1, §2, §3

[3] = tested on: MRSA OC 2878; assay: MIC by microdilution broth method (NCCLS), MRSA OC 2878; type: cell-based, Staphylococcus aureus; conditions: Staphylococcus aureus, MRSA, cation adjusted Mueller-Hinton broth, 35° C., 16-20 hours, read-out: MIC (μg/mL) MRSA OC 2878
Method: as §1, §2, §3

`CC(=O)NC[C@H]1CN(c2ccc(OC3CCN(C(=O)c4ccco4)CC3)c(F)c2)C(=O)O1` [Compound 51, (S)-N-[[3-[3-Fluoro-4-{N-(2-furoyl)piperdinyl-4-oxy}phenyl]-2-oxo-5-oxazolidinyl]methyl]acetamide] showed an MIC [1] of 8 µg/mL (≈ 18 µM), an MIC [2] of 16 µg/mL (≈ 35.9 µM) and an MIC [3] of 8 µg/mL (≈ 18 µM). The melting point was 134 to 136 °C.

In the case of `CC(=O)NC[C@H]1CN(c2ccc(OC3CCN(C(=O)CCc4cccnc4)CC3)c(F)c2)C(=O)O1` [Compound 27, (S)-N-[[3-[3-Fluoro-4-{N-(3-pyridin-3-yl-propionyl)piperidinyl-4-oxy}phenyl]-2-oxo-5-oxazolidinyl]methyl]acetamide], the MIC [1] is reported as 16 µg/mL (≈ 33 µM), the MIC [2] is reported as 16 µg/mL (≈ 33 µM) and the MIC [3] is reported as 16 µg/mL (≈ 33 µM). For the same compound, the melting point was 45 to 47 °C.

Compound `CC(=O)NC[C@H]1CN(c2ccc(OC3CN(C(=O)COC(C)=O)C3)c(F)c2)C(=O)O1` [Compound 59, (S)-N-[[3-[3-Fluoro-4-{N-(acetoxyacetyl)azetidinyl-3-oxy}phenyl]-2-oxo-5-oxazolidinyl]methyl]acetamide] has an MIC [1] of 16 µg/mL (≈ 37.8 µM), an MIC [2] of 4 µg/mL (≈ 9.45 µM) and an MIC [3] of 8 µg/mL (≈ 18.9 µM). For the same compound, the melting point was 172 to 175 °C.

`CC(=O)NC[C@H]1CN(c2ccc(OC3CCN(C(=O)c4cccc(C(F)(F)F)c4)CC3)c(F)c2)C(=O)O1` [Compound 10, (S)-N-[[3-[3-Fluoro-4-{N-(3-trifluoromethylbenzoyl)piperidinyl-4-oxy}phenyl]-2-oxo-5-oxazolidinyl]methyl]acetamide] showed an MIC [1] of 32 µg/mL (≈ 61.1 µM), an MIC [2] of 16 µg/mL (≈ 30.6 µM) and an MIC [3] of 16 µg/mL (≈ 30.6 µM). The melting point was 150 to 152 °C.

In the case of `CC(=O)NC[C@H]1CN(c2ccc(OC3CN(C(=O)COCc4ccccc4)C3)c(F)c2)C(=O)O1` [Compound 58, (S)-N-[[3-[3-Fluoro-4-{N-(benzyloxyacetyl)azetidinyl-3-oxy}phenyl]-2-oxo-5-oxazolidinyl]methyl]acetamide], the MIC [1] is reported as 4 µg/mL (≈ 8.48 µM), the MIC [2] is reported as 8 µg/mL (≈ 17 µM) and the MIC [3] is reported as 4 µg/mL (≈ 8.48 µM). For the same compound, the melting point was 119 to 121 °C.

For `CC(=O)NC[C@H]1CN(c2ccc(OC3CCN(C(=O)c4ccccc4)CC3)nc2)C(=O)O1` [Compound 46, (5S)-3-[6-{N-(Benzoyl)piperidinyl-4-oxy}-pyridin-3-yl]-5-methylacetamide-oxazolidin-2-one], the MIC [1] was > 128 µg/mL, the MIC [2] was 64 µg/mL (≈ 146 µM) and the MIC [3] was 64 µg/mL (≈ 146 µM). It also gave a melting point of 180 to 182 °C.

Work on `CC(=O)NCC(=O)N1CCC(Oc2ccc(N3C[C@H](CNC(C)=O)OC3=O)cc2F)CC1` [Compound 18, (S)-N-[[3-[3-Fluoro-4-{N-(α-N-acetylaminoacetyl)piperidinyl-4-oxy}phenyl]-2-oxo-5-oxazolidinyl]methyl]acetamide] yielded an MIC [1] of 64 µg/mL (≈ 142 µM), an MIC [2] of 8 µg/mL (≈ 17.8 µM) and an MIC [3] of 16 µg/mL (≈ 35.5 µM). The melting point was 66 to 68 °C.

Work on `CC(=O)NC[C@H]1CN(c2ccc(OC3CCN(S(=O)(=O)N(C)C)CC3)c(F)c2)C(=O)O1` [Compound 23, (S)-N-[[3-[3-Fluoro-4-{N-(dimethylsulfamoyl)piperidinyl-4-oxy}phenyl]-2-oxo-5-oxazolidinyl]methyl]acetamide] yielded an MIC [1] of 16 µg/mL (≈ 34.9 µM), an MIC [2] of 16 µg/mL (≈ 34.9 µM) and an MIC [3] of 4 µg/mL (≈ 8.72 µM). The melting point was 132 to 134 °C.
